# Patent publication US20040073074A1, “Method of continuous production of polyalkylbiphenyls” (priority 2002, published 2004)
# Assay: Confirmation of precipitation of 4,4′-diisopropylbiphenyl crystals on cooling
# Type: physicochemical
# Conditions: cooled to −10° C.
# Experimental: (Confirmation of Precipitation of 4,4′-diisopropylbiphenyl Crystals)
# Solutions each containing 4,4′-diisopropylbiphenyl in ratios of 15% by mass and 30% by mass in diisopropylbiphenyl were respectively prepared in an amount of 50 g. Each solution was cooled to −10° C. […] Therefore, as mentioned above, in the case where the content of diisopropylbiphenyl contained in the solution recovery from the tower top of the distillation tower is 7.6% by mass and this amount is 27.6% by mass of the amount of diisopropylbiphenyl measured at the outlet of the reactor, with the result that the amount of 4,4′-diisopropylbiphenyl in diisopropylbiphenyl as a product is 14.1% by mass, there is no particular problem as to the low-temperature characteristics of the product. However, if the amount of diisopropylbiphenyl contained in the solution recovery from the tower top of the distillation tower becomes increase and the amount of 4,4′-diisopropylbiphenyl in diisopropylbiphenyl as a product becomes increase, the low-temperature characteristics will deteriorate.
compound,measurement,setting,value
"CC(C)c1ccc(-c2ccc(C(C)C)cc2)cc1 [4,4′-diisopropylbiphenyl]",precipitation of crystals,15% by mass in diisopropylbiphenyl,no precipitation of crystals was observed
same,precipitation of crystals,30% by mass in diisopropylbiphenyl,"a large amount of 4,4′-diisopropylbiphenyl precipitated"
